Laboratory results published in article PMC8766756, “Insights on Cancer Cell Inhibition, Subcellular Activities, and Kinase Profile of Phenylacetamides Pending 1H-Imidazol-5-One Variants” (Frontiers in Pharmacology, 2022).
Where “and” joins values, the source holds several entries; their conditions need not be identical. Equal entries are not always repeated.

What was measured:
Experiment in all cases: PamChip tyrosine kinase microarray
Type in all cases: biochemical
Conditions in all cases: 0.1 µM, HL60 lysate
[1] = target: T1, IGF1R (P08069) (Homo sapiens, UniProt P08069)
T1 construct: purchased PamGene (PamChip PTK array, Upstream Kinase Analysis)
Protocol: (§1) The reproducible high potency of KIM-161 on leukemia cell lines was initially speculated to encompass Src tyrosine kinase inhibition. Even so, we also suspected that KIM-161 might be affecting other tyrosine kinases because the HL60 cells are not among the most Src-dependent highly proliferative cells ([Collins, 1987]). Therefore, a profiling of the kinase activities was performed after treatment with KIM-161 using PamChip® tyrosine kinase microarray. This analysis is based on incubation of cell lysate with 3D microarray that projects peptides specific for 143 tyrosine kinases. If a kinase is modified in the cells, it will be detected by phosphorylating its specific peptide in the microarray.
(§2) This test measured the activities of an array of tyrosine kinases of treated HL60 cells compared to the control (untreated cells) after incubation with KIM-161 for 48 h at concentrations of 0.001, 0.01, 0.1, 1.0, 10, and 50 µM. The log fold change (LFC) heat map was initially used to identify significant peptides affected at each concentration (Figure 5).
(§3) An Upstream Kinase Tool was used to generate a putative list of kinases responsible for phosphorylating the phosphosites on the PamChip®. It is an interpretation and is highly dependent on the contents of the underlying phosphorylation databases. Kinase score (Table 2) was used for ranking kinases based on their significance and specificity in terms of the set of peptides used for the corresponding kinase. Kinase statistics indicates the overall change of the peptide set that represents a certain kinase. Kinase statistics value of <0 indicates lower kinase activity in the lysate spiked with the compound and vice versa. Table 2 lists the 20 most changed kinases within treated HL60 cell lysates by 0.1 μM KIM-161.
(§4) Every compound had spiked into a leukemic (AML) cell line HL60 lysate at different concentrations (0.001, 0.01, 0.1, 1, 10, and 50 μM). In addition, DMSO had also spiked at a low concentration (2% v/v) to the HL60 lysate as the control. The samples were profiled on PamGene's tyrosine kinase (PTK) arrays in technical replicates, covering a total of 196 phosphorylation sites. The frozen leukemic HL60 cultured cell pellet was sent to PamGene. At PamGene, the cells were lysed in the presence of the lysis buffer and proteases inhibitor cocktail. The protein concentration was measured using the standard Bradford assay as per the PamGene SOPs. These lysates were further used for generating the PTK activity profiles. For spiking, KIM-161 was received in powder form and dissolved in DMSO at the PamGene facility, followed by storing it at −20°C in small aliquots. PamGene used its in-house bioinformatics toolbox in combination with other methods to generate the hypotheses of signaling pathways.

[2] = target: T2, BTK (Q06187) (Homo sapiens, UniProt Q06187)
T2 construct: purchased PamGene (PamChip PTK array, Upstream Kinase Analysis)
T2 sequence (Q06187 whole entry): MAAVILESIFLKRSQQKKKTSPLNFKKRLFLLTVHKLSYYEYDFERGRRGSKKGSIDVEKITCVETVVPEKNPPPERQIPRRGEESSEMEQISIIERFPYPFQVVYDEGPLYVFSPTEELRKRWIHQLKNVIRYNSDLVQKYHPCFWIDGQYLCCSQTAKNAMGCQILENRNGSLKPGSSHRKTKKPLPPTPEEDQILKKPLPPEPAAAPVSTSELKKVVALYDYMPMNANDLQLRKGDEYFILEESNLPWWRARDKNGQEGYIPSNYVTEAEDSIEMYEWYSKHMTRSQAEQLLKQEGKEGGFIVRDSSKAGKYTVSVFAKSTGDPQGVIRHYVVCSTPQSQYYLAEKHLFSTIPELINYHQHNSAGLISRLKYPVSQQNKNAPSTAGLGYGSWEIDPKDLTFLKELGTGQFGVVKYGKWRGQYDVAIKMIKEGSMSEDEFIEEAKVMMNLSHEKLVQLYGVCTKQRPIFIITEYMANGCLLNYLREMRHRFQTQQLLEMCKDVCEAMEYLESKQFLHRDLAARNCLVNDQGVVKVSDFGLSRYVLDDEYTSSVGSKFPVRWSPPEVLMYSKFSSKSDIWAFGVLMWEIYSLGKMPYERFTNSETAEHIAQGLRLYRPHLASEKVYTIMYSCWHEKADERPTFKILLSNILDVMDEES
Protocol: as §1, §2, §3, §4

[3] = target: T3, Fes (P07332) (Homo sapiens, UniProt P07332)
T3 construct: purchased PamGene (PamChip PTK array, Upstream Kinase Analysis)
T3 sequence (P07332 whole entry): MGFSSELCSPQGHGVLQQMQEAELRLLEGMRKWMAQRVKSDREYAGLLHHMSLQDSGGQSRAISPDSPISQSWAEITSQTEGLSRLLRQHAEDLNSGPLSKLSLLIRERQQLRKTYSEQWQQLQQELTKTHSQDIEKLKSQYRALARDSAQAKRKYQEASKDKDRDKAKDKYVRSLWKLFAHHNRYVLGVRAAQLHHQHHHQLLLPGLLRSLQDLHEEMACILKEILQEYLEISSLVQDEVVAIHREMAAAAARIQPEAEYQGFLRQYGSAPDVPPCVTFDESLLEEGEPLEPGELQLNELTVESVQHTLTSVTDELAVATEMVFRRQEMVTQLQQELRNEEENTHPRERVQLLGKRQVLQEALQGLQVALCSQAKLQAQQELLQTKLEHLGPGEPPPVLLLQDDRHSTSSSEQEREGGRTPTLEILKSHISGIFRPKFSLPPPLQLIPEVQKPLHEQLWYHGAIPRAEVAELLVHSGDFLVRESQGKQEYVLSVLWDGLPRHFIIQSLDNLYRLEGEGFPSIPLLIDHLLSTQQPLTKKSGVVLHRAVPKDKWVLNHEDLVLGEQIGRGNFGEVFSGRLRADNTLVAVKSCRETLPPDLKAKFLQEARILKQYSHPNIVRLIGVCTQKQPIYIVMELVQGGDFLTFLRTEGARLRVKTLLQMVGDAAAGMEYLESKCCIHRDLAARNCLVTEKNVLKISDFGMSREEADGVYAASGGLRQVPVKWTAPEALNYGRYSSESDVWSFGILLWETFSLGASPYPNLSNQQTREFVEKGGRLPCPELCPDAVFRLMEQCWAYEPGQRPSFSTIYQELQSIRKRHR
Protocol: as §1, §2, §3, §4

[4] = target: T4, EphA4 (P54764) (Homo sapiens, UniProt P54764)
T4 construct: purchased PamGene (PamChip PTK array, Upstream Kinase Analysis)
T4 sequence (P54764 20-986): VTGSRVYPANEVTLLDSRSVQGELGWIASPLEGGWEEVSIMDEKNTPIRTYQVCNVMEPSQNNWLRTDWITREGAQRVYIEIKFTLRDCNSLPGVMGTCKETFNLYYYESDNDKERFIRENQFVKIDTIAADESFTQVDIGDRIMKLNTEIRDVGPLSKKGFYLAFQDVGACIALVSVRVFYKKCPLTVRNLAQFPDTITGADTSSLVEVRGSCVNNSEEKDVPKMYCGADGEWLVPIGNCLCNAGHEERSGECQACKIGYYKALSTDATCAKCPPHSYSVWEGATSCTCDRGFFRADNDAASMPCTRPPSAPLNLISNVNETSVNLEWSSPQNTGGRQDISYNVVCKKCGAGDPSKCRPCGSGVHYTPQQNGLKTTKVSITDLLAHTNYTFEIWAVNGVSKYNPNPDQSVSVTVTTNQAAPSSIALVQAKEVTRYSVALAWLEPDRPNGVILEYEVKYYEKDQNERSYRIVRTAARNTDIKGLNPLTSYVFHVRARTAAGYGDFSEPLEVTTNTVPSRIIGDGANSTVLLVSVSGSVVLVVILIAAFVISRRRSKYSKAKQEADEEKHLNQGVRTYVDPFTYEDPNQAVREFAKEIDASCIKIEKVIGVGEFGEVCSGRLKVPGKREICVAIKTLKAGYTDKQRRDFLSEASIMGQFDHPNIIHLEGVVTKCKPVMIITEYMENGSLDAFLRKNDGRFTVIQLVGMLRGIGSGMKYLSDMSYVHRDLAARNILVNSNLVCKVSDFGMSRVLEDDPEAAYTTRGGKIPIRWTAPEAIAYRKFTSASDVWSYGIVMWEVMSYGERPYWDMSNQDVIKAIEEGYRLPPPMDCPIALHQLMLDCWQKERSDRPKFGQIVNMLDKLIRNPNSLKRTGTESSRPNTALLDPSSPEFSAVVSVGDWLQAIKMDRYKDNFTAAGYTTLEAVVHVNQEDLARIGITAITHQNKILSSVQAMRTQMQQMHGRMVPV
Protocol: as §1, §2, §3, §4

[5] = target: T5, HCK (P08631) (Homo sapiens, UniProt P08631)
T5 construct: purchased PamGene (PamChip PTK array, Upstream Kinase Analysis)
T5 sequence (P08631 whole entry): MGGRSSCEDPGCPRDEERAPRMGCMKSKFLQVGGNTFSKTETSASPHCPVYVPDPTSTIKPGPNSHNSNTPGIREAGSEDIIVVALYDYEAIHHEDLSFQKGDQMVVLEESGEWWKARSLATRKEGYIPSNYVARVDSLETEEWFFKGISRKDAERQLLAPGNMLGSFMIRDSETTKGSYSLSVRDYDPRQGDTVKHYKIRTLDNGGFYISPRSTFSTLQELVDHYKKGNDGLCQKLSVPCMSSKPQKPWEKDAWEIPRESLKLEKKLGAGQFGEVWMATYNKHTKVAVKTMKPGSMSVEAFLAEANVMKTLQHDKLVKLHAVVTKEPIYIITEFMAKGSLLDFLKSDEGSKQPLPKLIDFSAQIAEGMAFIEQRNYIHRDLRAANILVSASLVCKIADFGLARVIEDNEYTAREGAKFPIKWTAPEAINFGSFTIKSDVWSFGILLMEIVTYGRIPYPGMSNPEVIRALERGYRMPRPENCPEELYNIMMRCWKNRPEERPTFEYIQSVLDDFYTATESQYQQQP
Protocol: as §1, §2, §3, §4

[6] = target: T6, FGFR2 (P21802) (Homo sapiens, UniProt P21802)
T6 construct: purchased PamGene (PamChip PTK array, Upstream Kinase Analysis)
T6 sequence (P21802 22-821): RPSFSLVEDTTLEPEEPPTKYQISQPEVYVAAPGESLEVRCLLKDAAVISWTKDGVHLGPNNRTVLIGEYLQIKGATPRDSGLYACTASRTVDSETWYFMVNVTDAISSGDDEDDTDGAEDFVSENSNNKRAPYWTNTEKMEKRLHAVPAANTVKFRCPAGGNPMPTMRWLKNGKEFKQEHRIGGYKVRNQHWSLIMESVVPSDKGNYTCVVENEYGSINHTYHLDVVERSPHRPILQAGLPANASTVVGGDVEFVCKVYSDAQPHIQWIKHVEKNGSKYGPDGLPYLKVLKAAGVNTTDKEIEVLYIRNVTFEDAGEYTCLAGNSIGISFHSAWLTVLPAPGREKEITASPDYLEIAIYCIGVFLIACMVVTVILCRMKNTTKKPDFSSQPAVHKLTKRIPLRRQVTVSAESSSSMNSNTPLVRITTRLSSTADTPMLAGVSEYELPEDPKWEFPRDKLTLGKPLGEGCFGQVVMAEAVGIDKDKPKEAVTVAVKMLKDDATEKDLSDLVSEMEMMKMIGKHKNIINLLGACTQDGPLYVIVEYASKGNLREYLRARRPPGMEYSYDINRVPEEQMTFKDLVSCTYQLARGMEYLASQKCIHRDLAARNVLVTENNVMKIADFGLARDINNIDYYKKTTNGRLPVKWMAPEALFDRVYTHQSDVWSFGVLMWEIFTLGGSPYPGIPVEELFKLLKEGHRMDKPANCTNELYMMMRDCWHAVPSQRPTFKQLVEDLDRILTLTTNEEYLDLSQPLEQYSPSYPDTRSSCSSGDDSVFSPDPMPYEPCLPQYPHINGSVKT
Protocol: as §1, §2, §3, §4

[7] = target: T7, JAK2 (O60674) (Homo sapiens, UniProt O60674)
T7 construct: purchased PamGene (PamChip PTK array, Upstream Kinase Analysis)
T7 sequence (O60674 whole entry): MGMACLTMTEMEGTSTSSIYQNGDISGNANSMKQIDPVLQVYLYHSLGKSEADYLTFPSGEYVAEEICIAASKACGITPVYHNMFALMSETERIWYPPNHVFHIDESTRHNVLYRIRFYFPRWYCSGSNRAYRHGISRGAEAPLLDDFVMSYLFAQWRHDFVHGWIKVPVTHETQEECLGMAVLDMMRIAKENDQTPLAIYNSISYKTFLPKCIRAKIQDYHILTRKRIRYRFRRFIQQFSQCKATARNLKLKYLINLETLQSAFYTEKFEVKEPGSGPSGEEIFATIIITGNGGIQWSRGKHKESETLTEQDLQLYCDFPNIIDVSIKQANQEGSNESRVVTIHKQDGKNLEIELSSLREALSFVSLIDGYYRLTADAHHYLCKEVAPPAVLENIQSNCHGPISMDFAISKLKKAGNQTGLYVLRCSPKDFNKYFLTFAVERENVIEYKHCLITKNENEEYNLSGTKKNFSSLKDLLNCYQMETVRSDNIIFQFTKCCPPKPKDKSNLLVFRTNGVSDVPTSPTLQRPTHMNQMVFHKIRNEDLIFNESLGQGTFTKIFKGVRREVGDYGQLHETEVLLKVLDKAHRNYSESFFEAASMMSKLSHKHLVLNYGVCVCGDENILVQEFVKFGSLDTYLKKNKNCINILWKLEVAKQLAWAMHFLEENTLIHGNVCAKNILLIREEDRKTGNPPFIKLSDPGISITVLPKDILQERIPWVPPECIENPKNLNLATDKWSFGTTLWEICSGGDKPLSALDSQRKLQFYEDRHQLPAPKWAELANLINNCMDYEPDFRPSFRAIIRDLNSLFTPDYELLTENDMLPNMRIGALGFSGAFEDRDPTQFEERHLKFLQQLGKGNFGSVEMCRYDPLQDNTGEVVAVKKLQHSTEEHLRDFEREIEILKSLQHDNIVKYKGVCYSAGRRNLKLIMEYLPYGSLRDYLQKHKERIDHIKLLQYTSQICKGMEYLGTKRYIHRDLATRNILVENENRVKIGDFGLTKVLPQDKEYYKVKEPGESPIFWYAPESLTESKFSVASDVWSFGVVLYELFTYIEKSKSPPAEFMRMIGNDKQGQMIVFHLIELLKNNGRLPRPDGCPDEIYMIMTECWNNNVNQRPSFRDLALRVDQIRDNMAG
Protocol: as §1, §2, §3, §4

[8] = target: T8, EphA1 (P21709) (Homo sapiens, UniProt P21709)
T8 construct: purchased PamGene (PamChip PTK array, Upstream Kinase Analysis)
T8 sequence (P21709 26-976): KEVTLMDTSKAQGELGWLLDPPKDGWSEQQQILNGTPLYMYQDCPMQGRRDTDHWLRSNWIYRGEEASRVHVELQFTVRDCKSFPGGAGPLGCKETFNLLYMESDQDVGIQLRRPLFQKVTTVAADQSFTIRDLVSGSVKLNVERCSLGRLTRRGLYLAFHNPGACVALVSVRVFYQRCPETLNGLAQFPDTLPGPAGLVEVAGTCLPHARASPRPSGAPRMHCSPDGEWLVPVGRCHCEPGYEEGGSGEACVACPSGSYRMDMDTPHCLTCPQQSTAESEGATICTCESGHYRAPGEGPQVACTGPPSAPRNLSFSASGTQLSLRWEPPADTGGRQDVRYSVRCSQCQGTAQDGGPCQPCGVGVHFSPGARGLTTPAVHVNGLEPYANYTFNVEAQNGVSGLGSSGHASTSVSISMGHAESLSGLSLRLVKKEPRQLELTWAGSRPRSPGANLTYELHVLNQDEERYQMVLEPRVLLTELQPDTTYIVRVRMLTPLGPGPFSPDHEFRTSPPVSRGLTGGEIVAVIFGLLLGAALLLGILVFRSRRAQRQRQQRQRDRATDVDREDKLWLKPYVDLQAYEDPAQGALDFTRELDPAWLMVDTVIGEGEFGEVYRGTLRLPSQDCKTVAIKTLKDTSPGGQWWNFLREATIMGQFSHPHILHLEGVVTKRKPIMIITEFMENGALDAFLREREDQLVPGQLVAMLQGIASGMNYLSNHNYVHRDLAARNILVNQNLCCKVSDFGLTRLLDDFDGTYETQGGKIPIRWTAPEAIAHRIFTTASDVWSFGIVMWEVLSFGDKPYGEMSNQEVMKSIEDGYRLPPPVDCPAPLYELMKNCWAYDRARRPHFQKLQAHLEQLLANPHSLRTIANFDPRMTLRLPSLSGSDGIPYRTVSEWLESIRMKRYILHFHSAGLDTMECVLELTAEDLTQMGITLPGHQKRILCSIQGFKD
Protocol: as §1, §2, §3, §4

[9] = target: T9, RYK (H0Y8A4) (Homo sapiens, UniProt P34925)
T9 construct: purchased PamGene (PamChip PTK array, Upstream Kinase Analysis)
Protocol: as §1, §2, §3, §4

Q: Which results are given for `COc1ccc(/C=C2\N=C(C)N(c3ccc(CC(=O)NCc4ccccc4)cc3)C2=O)cc1` [Compound 4c, (Z)-N-Benzyl-2-(4-(4-(4-methoxybenzylidene)-2-methyl-5-oxo-4,5-dihydro-1H-imidazol-1-yl)phenyl)acetamide]?
A: Mean Final score (Kinase score) [1]: 2.173; Mean Kinase Statistic [1]: -1.034; Mean Significance Score [1]: 2.048; Mean Specificity Score [1]: 0.1033; Mean Significance Score [2]: 1.957; Mean Specificity Score [2]: 0.668; Mean Final score (Kinase score) ([2]; listed as KIM-161): 2.76 and 2.762; Mean Significance Score [3]: 2.048; Mean Specificity Score [3]: 1.058; Mean Final score (Kinase score) ([3]; listed as KIM-161): 3.13 and 3.128; Mean Final score (Kinase score) [4]: 1.356; Mean Kinase Statistic [4]: -0.7819; Mean Significance Score [4]: 1.252; Mean Specificity Score [4]: 0.07789; Mean Final score (Kinase score) [5]: 1.871; Mean Kinase Statistic [5]: -1.0936; Mean Significance Score [5]: 1.7269; Mean Specificity Score [5]: 0.1451; Mean Final score (Kinase score) [6]: 2.386; Mean Kinase Statistic [6]: -1.189; Mean Significance Score [6]: 2.048; Mean Specificity Score [6]: 0.3335; Mean Significance Score [7]: 2.048; Mean Specificity Score [7]: 1.216; Mean Final score (Kinase score) ([7]; listed as KIM-161): 3.19 and 3.191; Mean Kinase Statistic ([7]; listed as KIM-161): −1.43; Mean Final score (Kinase score) [8]: 2.326; Mean Kinase Statistic [8]: -1.184; Mean Significance Score [8]: 1.983; Mean Specificity Score [8]: 0.3263; Mean Final score (Kinase score) [9]: 2.574; Mean Kinase Statistic [9]: -1.293; Mean Significance Score [9]: 2.048; Mean Specificity Score [9]: 0.5126
